Data published in patent publication US20100041089A1, “IMPROVED METHOD FOR DETECTING CHEMICAL […]” (priority 2006, published 2010).

Tested on: yeast genes (expressed mRNA)
Experiment: DNA chip measurement of expressed mRNA of yeast genes after culture with a toxic chemical substance
Format: cell-based, Saccharomyces cerevisiae S288C
Conditions: for level of expressed mRNA in the presence of chemical substance / level in the absence of chemical substance: cultured two hours with the chemical substance; for The level of expressed mRNA in the presence of chemical substance/The level of expressed mRNA in the absence of chemical substance: cultured two hours with substance
In short: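 Yeast S288C, YPD 25° C; toxicant at log phase, 2 h, sublethal growth-inhibiting conc.; no-chemical control. Hot SDS/acetate RNA extraction, oligo-dT mRNA, Cy3/Cy5-dUTP RT. Whole-genome chip, 65° C >12 h. Readout: treated/control intensity ratio, ≥2 significant.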

Structure (SMILES): [Cl][Cd][Cl] [(2), CdCl2]
- level of expressed mRNA in the presence of chemical substance / level in the absence of chemical substance (yeast gene YNL058C): 1.0
- level of expressed mRNA in the presence of chemical substance / level in the absence of chemical substance (yeast gene YNL063W): 1.9
- The level of expressed mRNA in the presence of chemical substance/The level of expressed mRNA in the absence of chemical substance (yeast gene YNL074C): 1.3
- The level of expressed mRNA in the presence of chemical substance/The level of expressed mRNA in the absence of chemical substance (yeast gene YNL092W): 1.4
- The level of expressed mRNA in the presence of chemical substance/The level of expressed mRNA in the absence of chemical substance (yeast gene YNL115C): 1.8
- The level of expressed mRNA in the presence of chemical substance/The level of expressed mRNA in the absence of chemical substance (yeast gene YNL156C): 1.2
- level of expressed mRNA in the presence of chemical substance / level in the absence of chemical substance (yeast gene YNL176C): 1.3
- level of expressed mRNA in the presence of chemical substance / level in the absence of chemical substance (yeast gene YNL194C): 0.7
- level of expressed mRNA in the presence of chemical substance / level in the absence of chemical substance (yeast gene YNL200C): 3.0
- The level of expressed mRNA in the presence of chemical substance/The level of expressed mRNA in the absence of chemical substance (yeast gene YNL234W): 1.1
- level of expressed mRNA in the presence of chemical substance / level in the absence of chemical substance (yeast gene YNL253W): 1.3
- level of expressed mRNA in the presence of chemical substance / level in the absence of chemical substance (yeast gene YNL276C): 13.1
- The level of expressed mRNA in the presence of chemical substance/The level of expressed mRNA in the absence of chemical substance (yeast gene YNL281W): 1.3
- The level of expressed mRNA in the presence of chemical substance/The level of expressed mRNA in the absence of chemical substance (yeast gene YNL305C): 2.2
- level of expressed mRNA in the presence of chemical substance / level in the absence of chemical substance (yeast gene YNR051C): 0.5
- The level of expressed mRNA in the presence of chemical substance/The level of expressed mRNA in the absence of chemical substance (yeast gene YNR068C): 1.5
- level of expressed mRNA in the presence of chemical substance / level in the absence of chemical substance (yeast gene YOL026C): 2.7
- The level of expressed mRNA in the presence of chemical substance/The level of expressed mRNA in the absence of chemical substance (yeast gene YOL032W): 0.8
- The level of expressed mRNA in the presence of chemical substance/The level of expressed mRNA in the absence of chemical substance (yeast gene YOL036W): 0.9
- The level of expressed mRNA in the presence of chemical substance/The level of expressed mRNA in the absence of chemical substance (yeast gene YOL047C): 1.1
- The level of expressed mRNA in the presence of chemical substance/The level of expressed mRNA in the absence of chemical substance (yeast gene YOL071W): 2.0
- The level of expressed mRNA in the presence of chemical substance/The level of expressed mRNA in the absence of chemical substance (yeast gene YOL082W): 1.6
- The level of expressed mRNA in the presence of chemical substance/The level of expressed mRNA in the absence of chemical substance (yeast gene YOL083W): 2.3
- The level of expressed mRNA in the presence of chemical substance/The level of expressed mRNA in the absence of chemical substance (yeast gene YOL117W): 1.1
- The level of expressed mRNA in the presence of chemical substance/The level of expressed mRNA in the absence of chemical substance (yeast gene YOL131W): 1.5
- The level of expressed mRNA in the presence of chemical substance/The level of expressed mRNA in the absence of chemical substance (yeast gene YOL150C): 3.7
- The level of expressed mRNA in the presence of chemical substance/The level of expressed mRNA in the absence of chemical substance (yeast gene YOL162W): 6.9
- The level of expressed mRNA in the presence of chemical substance/The level of expressed mRNA in the absence of chemical substance (yeast gene YOR019W): 1.2
- level of expressed mRNA in the presence of chemical substance / level in the absence of chemical substance (yeast gene YOR022C): 1.1
- level of expressed mRNA in the presence of chemical substance / level in the absence of chemical substance (yeast gene YOR087W): 1.0
- level of expressed mRNA in the presence of chemical substance / level in the absence of chemical substance (yeast gene YOR138C): 1.5
- The level of expressed mRNA in the presence of chemical substance/The level of expressed mRNA in the absence of chemical substance (yeast gene YOR197W): 1.0
- level of expressed mRNA in the presence of chemical substance / level in the absence of chemical substance (yeast gene YOR253W): 2.8
- level of expressed mRNA in the presence of chemical substance / level in the absence of chemical substance (yeast gene YOR267C): 0.7
- level of expressed mRNA in the presence of chemical substance / level in the absence of chemical substance (yeast gene YOR325W): 2.6
- level of expressed mRNA in the presence of chemical substance / level in the absence of chemical substance (yeast gene YPL005W): 1.0
- The level of expressed mRNA in the presence of chemical substance/The level of expressed mRNA in the absence of chemical substance (yeast gene YPL087W): 5.1
- level of expressed mRNA in the presence of chemical substance / level in the absence of chemical substance (yeast gene YPL150W): 0.9
- level of expressed mRNA in the presence of chemical substance / level in the absence of chemical substance (yeast gene YPL152W): 1.1
- level of expressed mRNA in the presence of chemical substance / level in the absence of chemical substance (yeast gene YPL168W): 1.5
- level of expressed mRNA in the presence of chemical substance / level in the absence of chemical substance (yeast gene YPL180W): 2.0
- level of expressed mRNA in the presence of chemical substance / level in the absence of chemical substance (yeast gene YPL188W): 1.2
- The level of expressed mRNA in the presence of chemical substance/The level of expressed mRNA in the absence of chemical substance (yeast gene YPL196W): 1.6
- The level of expressed mRNA in the presence of chemical substance/The level of expressed mRNA in the absence of chemical substance (yeast gene YPL206C): 2.9
- level of expressed mRNA in the presence of chemical substance / level in the absence of chemical substance (yeast gene YPL221W): 3.0
- The level of expressed mRNA in the presence of chemical substance/The level of expressed mRNA in the absence of chemical substance (yeast gene YPL222W): 3.5
- level of expressed mRNA in the presence of chemical substance / level in the absence of chemical substance (yeast gene YPL225W): 1.7
- The level of expressed mRNA in the presence of chemical substance/The level of expressed mRNA in the absence of chemical substance (yeast gene YPR023C): 1.4
- level of expressed mRNA in the presence of chemical substance / level in the absence of chemical substance (yeast gene YPR049C): 2.5
- level of expressed mRNA in the presence of chemical substance / level in the absence of chemical substance (yeast gene YPR146C): 1.6
- level of expressed mRNA in the presence of chemical substance / level in the absence of chemical substance (yeast gene YPR148C): 1.2
- The level of expressed mRNA in the presence of chemical substance/The level of expressed mRNA in the absence of chemical substance (yeast gene YPR151C): 2.0
- level of expressed mRNA in the presence of chemical substance / level in the absence of chemical substance (yeast gene YPR172W): 1.6
